According to the supplement of paper PMC5662764:
± gives the standard deviation of the averaged measurements.

Legend:
Test in all cases: normalised growth rate inhibition (GR value) relative to DMSO control (GR (1 = untreated growth, 0 = cytostasis, <0 = cytotoxic)); higher = less growth inhibition
Conditions in all cases: 72 h
MDAMB231 = test system: MDAMB231
Method: (§1)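 Breast cancer cell lines (BT-20, Hs 578T, MCF 10A, MCF7, MDA-MB-231, SK-BR-3) were plated in 384-well plates and treated 24 h later with drugs at six concentrations (0.04-10 µM). Viable cells were counted by Hoechst/dead-cell-stain imaging at 0 and 72 h. Counts were normalised to DMSO controls on the same plate to give the relative cell count and the growth-rate inhibition (GR) value; technical plate triplicates were averaged for each biological replicate.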

BT20 = test system: BT20
Method: as §1

HS578T = test system: HS578T
Method: as §1

SKBR3 = test system: SKBR3
Method: as §1

MCF10A = test system: MCF10A
Method: as §1

MCF7 = test system: MCF7
Method: as §1

Structure (SMILES) | normalised growth rate inhibition (MDAMB231; 0.04 µM) | normalised growth rate inhibition (MDAMB231; 0.12 µM) | normalised growth rate inhibition (MDAMB231; 0.37 µM) | normalised growth rate inhibition (MDAMB231; 1.11 µM) | normalised growth rate inhibition (MDAMB231; 3.33 µM) | normalised growth rate inhibition (MDAMB231; 10 µM) | normalised growth rate inhibition (BT20; 0.04 µM) | normalised growth rate inhibition (BT20; 0.12 µM) | normalised growth rate inhibition (BT20; 0.37 µM) | normalised growth rate inhibition (BT20; 1.11 µM) | normalised growth rate inhibition (BT20; 3.33 µM) | normalised growth rate inhibition (BT20; 10 µM) | normalised growth rate inhibition (HS578T; 0.04 µM) | normalised growth rate inhibition (HS578T; 0.12 µM) | normalised growth rate inhibition (HS578T; 0.37 µM) | normalised growth rate inhibition (HS578T; 1.11 µM) | normalised growth rate inhibition (HS578T; 3.33 µM) | normalised growth rate inhibition (HS578T; 10 µM) | normalised growth rate inhibition (SKBR3; 0.04 µM) | normalised growth rate inhibition (SKBR3; 0.12 µM) | normalised growth rate inhibition (SKBR3; 0.37 µM) | normalised growth rate inhibition (SKBR3; 1.11 µM) | normalised growth rate inhibition (SKBR3; 3.33 µM) | normalised growth rate inhibition (SKBR3; 10 µM) | normalised growth rate inhibition (MCF10A; 0.04 µM) | normalised growth rate inhibition (MCF10A; 0.12 µM) | normalised growth rate inhibition (MCF10A; 0.37 µM) | normalised growth rate inhibition (MCF10A; 1.11 µM) | normalised growth rate inhibition (MCF10A; 3.33 µM) | normalised growth rate inhibition (MCF10A; 10 µM) | normalised growth rate inhibition (MCF7; 0.04 µM) | normalised growth rate inhibition (MCF7; 0.12 µM) | normalised growth rate inhibition (MCF7; 0.37 µM) | normalised growth rate inhibition (MCF7; 1.11 µM) | normalised growth rate inhibition (MCF7; 3.33 µM) | normalised growth rate inhibition (MCF7; 10 µM)
COCC(=O)NC/C=C/c1ccc2ncnc(Nc3ccc(Oc4ccc(C)nc4)c(C)c3)c2c1 | 0.899 ± 0.13 | 0.896 ± 0.13 | 0.897 ± 0.12 | 0.912 ± 0.088 | 0.832 ± 0.15 | 0.812 ± 0.14 | 0.928 ± 0.0096 | 0.918 ± 0.026 | 0.892 ± 0.045 | 0.805 ± 0.032 | 0.767 ± 0.053 | 0.531 ± 0.052 | 0.966 ± 0.018 | 0.975 ± 0.035 | 0.963 ± 0.026 | 0.956 ± 0.042 | 0.928 ± 0.025 | 0.857 ± 0.017 | 0.508 ± 0.27 | 0.315 ± 0.22 | 0.188 ± 0.21 | 0.165 ± 0.12 | 0.0772 ± 0.1 | -0.0874 ± 0.078 | 1.011 ± 0.0036 | 0.9964 ± 0.006 | 0.989 ± 0.014 | 0.984 ± 0.01 | 0.9849 ± 0.0016 | 0.9384 ± 0.003 | 0.835 ± 0.1 | 0.803 ± 0.063 | 0.786 ± 0.025 | 0.796 ± 0.066 | 0.822 ± 0.084 | 0.499 ± 0.13
CCCS(=O)(=O)Nc1ccc(F)c(C(=O)c2c[nH]c3ncc(Cl)cc23)c1F [PLX-4720] | 0.989 ± 0.06 | 1.01 ± 0.054 | 1 ± 0.032 | 0.929 ± 0.041 | 0.822 ± 0.073 | 0.63 ± 0.21 | 1.01 ± 0.032 | 0.988 ± 0.027 | 0.959 ± 0.051 | 0.882 ± 0.16 | 0.685 ± 0.1 | 0.409 ± 0.05 | 1.03 ± 0.033 | 1.09 ± 0.044 | 1.12 ± 0.079 | 1.12 ± 0.11 | 1.04 ± 0.086 | 0.781 ± 0.092 | 0.994 ± 0.015 | 0.999 ± 0.026 | 1.04 ± 0.15 | 1.06 ± 0.06 | 0.61 ± 0.1 | 0.254 ± 0.26 | 0.998 ± 0.019 | 0.99 ± 0.039 | 0.982 ± 0.054 | 1 ± 0.068 | 1 ± 0.066 | 0.896 ± 0.056 | 1.04 ± 0.078 | 0.944 ± 0.028 | 1.02 ± 0.049 | 0.991 ± 0.02 | 0.851 ± 0.097 | 0.5 ± 0.16
Cn1cc(C2=C(c3cn(C4CCN(Cc5ccccn5)CC4)c4ccccc34)C(=O)NC2=O)c2ccccc21 [enzastaurin] | 1 ± 0.023 | 1.01 ± 0.035 | 1 ± 0.048 | 1 ± 0.071 | 1.01 ± 0.036 | 1.03 ± 0.079 | 1.01 ± 0.1 | 1.03 ± 0.057 | 1.07 ± 0.043 | 1.07 ± 0.079 | 1.13 ± 0.057 | 1.19 ± 0.062 | 1.02 ± 0.027 | 0.998 ± 0.018 | 1 ± 0.028 | 1.02 ± 0.027 | 1.01 ± 0.019 | 0.935 ± 0.035 | 1.1 ± 0.097 | 1.07 ± 0.085 | 1.1 ± 0.033 | 1.06 ± 0.033 | 1.07 ± 0.056 | 0.958 ± 0.18 | 1.006 ± 0.0093 | 1 ± 0.014 | 1 ± 0.018 | 1.02 ± 0.03 | 1.01 ± 0.061 | 0.985 ± 0.11 | 0.978 ± 0.052 | 0.999 ± 0.035 | 1.01 ± 0.035 | 0.946 ± 0.039 | 0.936 ± 0.084 | 0.693 ± 0.31
CS(=O)(=O)CCNCc1ccc(-c2ccc3ncnc(Nc4ccc(OCc5cccc(F)c5)c(Cl)c4)c3c2)o1 [lapatinib] | 0.878 ± 0.033 | 0.9385 ± 0.0078 | 0.955 ± 0.01 | 0.948 ± 0.025 | 0.947 ± 0.011 | 0.62 ± 0.11 | 0.857 ± 0.091 | 0.957 ± 0.075 | 0.965 ± 0.053 | 0.991 ± 0.062 | 0.958 ± 0.11 | 0.749 ± 0.15 | 0.982 ± 0.025 | 0.9754 ± 0.0072 | 0.976 ± 0.019 | 0.985 ± 0.015 | 1.01 ± 0.027 | 0.636 ± 0.14 | 0.0194 ± 0.093 | -0.00655 ± 0.072 | -0.0149 ± 0.1 | -0.0045 ± 0.12 | 0.00322 ± 0.13 | 0.133 ± 0.035 | 0.975 ± 0.029 | 0.957 ± 0.034 | 0.943 ± 0.047 | 0.895 ± 0.075 | 0.747 ± 0.16 | 0.288 ± 0.17 | 0.803 ± 0.12 | 0.872 ± 0.13 | 0.947 ± 0.074 | 0.936 ± 0.092 | 0.926 ± 0.051 | 0.321 ± 0.14
CNC(=O)c1cc(Oc2ccc(NC(=O)Nc3ccc(Cl)c(C(F)(F)F)c3)cc2)ccn1 [sorafenib] | 1.01 ± 0.045 | 0.917 ± 0.13 | 0.927 ± 0.11 | 0.938 ± 0.18 | 0.918 ± 0.13 | 0.801 ± 0.12 | 0.936 ± 0.017 | 0.931 ± 0.023 | 0.855 ± 0.052 | 0.849 ± 0.036 | 0.836 ± 0.026 | 0.429 ± 0.35 | 1.13 ± 0.076 | 1.14 ± 0.061 | 1.16 ± 0.098 | 1.18 ± 0.12 | 1.15 ± 0.11 | 0.874 ± 0.093 | 0.908 ± 0.048 | 0.954 ± 0.093 | 0.993 ± 0.07 | 1.03 ± 0.074 | 1.04 ± 0.084 | 0.212 ± 0.27 | 1.02 ± 0.046 | 0.993 ± 0.048 | 0.978 ± 0.047 | 0.97 ± 0.034 | 0.95 ± 0.038 | 0.65 ± 0.1 | 0.946 ± 0.023 | 0.91 ± 0.057 | 0.936 ± 0.028 | 0.906 ± 0.072 | 0.852 ± 0.089 | 0.247 ± 0.12
C=CC(=O)Nc1cc(-n2c(=O)ccc3cnc4ccc(-c5cn[nH]c5)cc4c32)ccc1C [QL-X-138] | 0.824 ± 0.13 | 0.834 ± 0.062 | 0.768 ± 0.059 | 0.672 ± 0.12 | 0.48 ± 0.13 | -0.135 ± 0.11 | 0.727 ± 0.052 | 0.726 ± 0.046 | 0.631 ± 0.11 | 0.535 ± 0.17 | 0.381 ± 0.18 | -0.222 ± 0.053 | 0.841 ± 0.034 | 0.76 ± 0.066 | 0.639 ± 0.024 | 0.501 ± 0.018 | 0.379 ± 0.061 | -0.0527 ± 0.082 | 0.463 ± 0.16 | 0.413 ± 0.11 | 0.233 ± 0.13 | 0.163 ± 0.09 | 0.0588 ± 0.1 | -0.231 ± 0.21 | 1.01 ± 0.063 | 0.981 ± 0.074 | 0.887 ± 0.15 | 0.791 ± 0.19 | 0.505 ± 0.29 | -0.112 ± 0.031 | 0.496 ± 0.22 | 0.41 ± 0.2 | 0.31 ± 0.098 | 0.205 ± 0.094 | 0.145 ± 0.061 | -0.0977 ± 0.021
Cc1ccc2nc(NCCN)c3ncc(C)n3c2c1 | 0.9929 ± 0.0097 | 0.936 ± 0.097 | 0.885 ± 0.06 | 0.652 ± 0.085 | 0.265 ± 0.11 | -0.253 ± 0.2 | 1.01 ± 0.027 | 0.968 ± 0.055 | 0.952 ± 0.087 | 0.847 ± 0.12 | 0.778 ± 0.082 | -0.00828 ± 0.2 | 1.01 ± 0.018 | 0.998 ± 0.018 | 0.99 ± 0.021 | 0.92 ± 0.049 | 0.723 ± 0.11 | -0.218 ± 0.13 | 1.05 ± 0.043 | 1.01 ± 0.088 | 0.929 ± 0.11 | 0.604 ± 0.066 | 0.192 ± 0.13 | -0.358 ± 0.23 | 0.996 ± 0.011 | 0.979 ± 0.014 | 0.974 ± 0.016 | 0.967 ± 0.019 | 0.957 ± 0.018 | 0.85 ± 0.046 | 1.06 ± 0.058 | 1 ± 0.06 | 0.883 ± 0.058 | 0.502 ± 0.14 | 0.0136 ± 0.12 | -0.348 ± 0.14
O=C(NC1CCNCC1)c1n[nH]cc1NC(=O)c1c(Cl)cccc1Cl [AT-7519] | 0.732 ± 0.19 | 0.291 ± 0.38 | -0.171 ± 0.22 | -0.291 ± 0.22 | -0.355 ± 0.2 | -0.388 ± 0.19 | 0.891 ± 0.088 | 0.695 ± 0.31 | 0.207 ± 0.43 | -0.207 ± 0.12 | -0.361 ± 0.21 | -0.422 ± 0.18 | 0.899 ± 0.1 | 0.564 ± 0.38 | -0.102 ± 0.11 | -0.14 ± 0.099 | -0.242 ± 0.12 | -0.295 ± 0.11 | 0.717 ± 0.24 | 0.14 ± 0.11 | -0.104 ± 0.074 | -0.284 ± 0.15 | -0.41 ± 0.18 | -0.523 ± 0.16 | 0.969 ± 0.028 | 0.88 ± 0.071 | 0.222 ± 0.39 | -0.156 ± 0.23 | -0.256 ± 0.28 | -0.296 ± 0.25 | 0.69 ± 0.41 | 0.0423 ± 0.33 | -0.267 ± 0.063 | -0.302 ± 0.099 | -0.33 ± 0.14 | -0.404 ± 0.13
